Experimental data reported in PMC12040169 (PLOS Biology, 2025).

Experiment: in vitro
Settings: human, hela cells, % viability

Compound	viability at 28.5 h, 10 µM [%]
O=C(CSc1nnc(Cc2cccc3ccccc23)n1-c1ccccc1)NC1CC1 [CBK267382]	86.3
Cc1ccc(C(=O)O)cc1S(=O)(=O)N(C)CCO [CBK267167]	94.1
COc1ccc2c(c1)C(NC(=O)C1CCCN(C)C1)CC(C)(C)O2 (stereo not shown) [CBK307631]	113
CCN(CC)CCn1c2ccc(C)cc2c2nc(C)sc21 [CBK269764C]	99.7
O=C(N[C@@H](Cn1cc(F)c(=O)[nH]c1=O)C(=O)O)C1CCCC1 [CBK289660]	109
CC(=O)Nc1cccc(-c2nccnc2NCC2CC2)c1 [CBK037962]	90.4
Cc1nccn1CCN(C)C(=O)c1ccc2c(c1)ncn2C [CBK281993]	98.8
CC(C)c1cccc(-n2cc(O)c(C(=O)NCCC(=O)N(C)C)n2)c1 [CBK305234]	86.5
CCOc1ccc(C(C)(N)C(=O)O)cc1 (stereo not shown) [CBK261362]	121
O=C(CCNS(=O)(=O)c1ccccc1)N1CCC(Cc2ccccc2)CC1 [CBK270091]	84.9
CCc1nc2ccc(C(=O)NCCN3CCOCC3)cn2c1N(C)Cc1cc2ccccc2s1 [CBK146561]	101
O=C1S/C(=C\c2ccc(O)c([N+](=O)[O-])c2)C(=O)N1Cc1ccc(Cl)cc1 [CBK102929]	87.2
O=C(Nc1ccccc1-c1ccccc1)c1cc(-c2ccncc2)nc2ccc(Cl)cc12 [CBK267759]	95
CCC1CCC2(CC1)NC(=O)N(Cc1nc(-c3cccs3)no1)C2=O (stereo not shown) [CBK305005]	92.6
CC(C)c1nc(CC(=O)N2CCOC(c3ccc(F)cc3)C2)cs1 (stereo not shown) [CBK305334]	93.9
CN1CCC(NC2(Cc3cc(-c4ccccn4)on3)COC2)CC1 [CBK289249]	88.7
CNC(=O)c1ccc(-c2cc(OC)c(OC)c(OC)c2)nc1NCCOC [CBK105997]	94.1
CCCC(=O)c1ccc(S(=O)(=O)N2CCCN(Cc3ccc4cccc(O)c4n3)CC2)cc1 [CBK062901]	102
CC(C)NC(=O)c1cc([C@H]2CC[C@H](CNC(=O)CN3CCCC3)CC2)nc2ccccc12 [CBK285861]	85.7
CC(C)(C)c1cnc(C(=O)NC2CCCN(c3ncccn3)C2)o1 (stereo not shown) [CBK305777]	92.3
Cc1cccc(C(=O)O)c1NC(=O)Cc1cccc2ccccc12 [CBK268361]	111
CN(C)S(=O)(=O)N(C)c1ccc(C(=O)O)cc1 [CBK287244]	105

Compound	viability at 28.5 h, 10 µM [%]
O=C(NC1CC2CCC(C1)N2Cc1ccccc1)c1ccc(Cl)cc1 (stereo not shown) [CBK120192]	88.4
CCOC(=O)c1cnc2c(Cl)cc(Cl)cc2c1NCCN1CCOCC1 [CBK307278]	83.5
Cc1ccc(-c2c(N3C(=O)c4cccnc4C3=O)n[nH]c2C)cc1 [CBK288199]	101
O=C(CN1C(=O)c2ccccc2C1=O)Nc1ccccc1C(=O)N1CCN(c2ccccc2)CC1 [CBK269251]	118
CCc1cc2c(NCc3ccccc3)ncnc2s1 [CBK057944]	91.4
CN(C)CCNC(=O)c1cccc(-c2cncc(NCc3ccc4c(c3)OCO4)n2)c1 [CBK065361]	110
COc1ccc(-n2ncc(-c3ccc(C(F)(F)F)cc3)n2)cc1 [CBK112688]	92.4
COc1nccnc1OC1CCN(CCc2ccc(F)cc2)CC1 [CBK084259]	102
COC(=O)CN1C(=O)CC2(C1=O)C(=O)N(Cc1ccccc1)c1ccc(F)cc12 (stereo not shown) [CBK075143]	95.7
CC1=C[C@@H](CNS(=O)(=O)c2cccs2)[C@H](C(C)C)C[C@H]1CC(=O)O [CBK289210]	92.4
CSc1sc(NC(=O)Nc2cccc(C(F)(F)F)c2)cc1C#N [CBK017114]	93.9
Cc1ccc2c(C)c(-c3cncn3C(C)CN3CCOCC3)oc2c1 (stereo not shown) [CBK281796]	107
Cc1nc(CC(=O)OC(C)C(=O)N2CCCc3ccccc32)cs1 (stereo not shown) [CBK305285]	91.6
COc1ccccc1N1CCN(CCC(=O)Nc2ccc(Br)c(C)c2)CC1 [CBK264218]	93.6
Cc1cc(C(=O)NCCn2ccc(C)n2)c2cccc(Cl)c2n1 [CBK282549]	79.6
N#Cc1ccccc1NC(=O)C(CC(=O)O)NCc1ccccc1 (stereo not shown) [CBK286907]	83.6
CCC1(CC)OC(NCc2ccccc2)=NC1=O [CBK122636]	86.2
Cc1cc(C)n(CC(=O)NC(Cc2cccs2)c2nccs2)n1 (stereo not shown) [CBK284686]	85.8
O=c1[nH]c2ccccc2n1CCCN1CCC(Cc2ccccc2)CC1 [CBK138318]	104
CN(C)CCOC(=O)c1ccc(S(=O)(=O)N(C)C)o1 [CBK264273C]	100
CCOC(=O)c1ccc(C2=NCCC2)[nH]1 [CBK011191]	95.1
CC(C)(C)c1nnc([C@H]2CCN(C(=O)CCC(=O)O)C2)o1 [CBK289406]	96.1

Compound	viability at 28.5 h, 10 µM [%]
COc1cc(/C=N/c2ccc3oc(-c4cccc(I)c4)nc3c2)ccc1OC(=O)c1ccc(Cl)cc1Cl [CBK261239]	95.3
Nc1ncnc2[nH]c(SCc3nc4ccccc4n3Cc3ccccc3)nc12 [CBK264148]	103
COc1ccc([N+](=O)[O-])cc1NC(=O)c1cc(-c2ccccc2Cl)nc2ccc(C)cc12 [CBK267764]	94.1
COc1cc(C=Cc2cc(C(=O)O)c3ccccc3n2)cc(Cl)c1OC(C)C [CBK296941]	93.7
COC(=O)Cc1ccc(NC(=S)Nc2ccc(N3CCOCC3)cc2)cc1 [CBK267211]	87.4
CCC(=O)N1CCC(c2nc(C3CCCC3)no2)C1 (stereo not shown) [CBK285458]	95.3
O=C(c1cccc(F)c1)N1CCC(O)(c2cccnc2F)CC1 [CBK284357]	92.2
CCCCc1ccc(C(=O)CSc2nc(N)c(C#N)c(-c3ccc(O)cc3)c2C#N)cc1 [CBK261268]	93.4
CC1Cc2cc(C(=O)N3CCCCC3CN(C)C)ccc2O1 (stereo not shown) [CBK282193]	110
Cn1nc2c(c1C(=O)N1CCc3[nH]c4ccccc4c3C1)CCCC2 [CBK281844]	79.7
COc1ccc(-c2cc(C(=O)Nc3ccc4ncccc4c3)cnc2-c2ccccc2)cc1 [CBK036623]	106
COc1ccccc1N1CCN(CCC(=O)Nc2ccccc2F)CC1 [CBK264313]	106
COc1ccc(S(=O)(=O)NC(C)C(=O)Nc2cc(Cl)ccc2OC)cc1 (stereo not shown) [CBK269479]	104
COc1ccc(NC(=O)CC2NC(=O)NC2=O)cc1 (stereo not shown) [CBK267279]	86.5
CC(C)c1ccccc1OCC(=O)N1CCCc2c(cnn2C)C1 [CBK285287]	111
CN1CCC(Oc2nc3cc(Cl)c(Cl)cc3nc2N2CCCC2)CC1 [CBK115290]	82.2
O=C1CCCN1CCOc1nccnc1-c1cc2ccccc2s1 [CBK106780]	91
Cc1ncc(C(O)c2ccc(Cl)cc2)c2c1OC(C)(C)OC2 (stereo not shown) [CBK010749]	111
CCCN1CCN(c2ncnc3sc(C4COc5ccccc5O4)cc23)CC1 (stereo not shown) [CBK269396]	98.1
O=C(O)C1Cc2nc[nH]c2C(c2ccc(F)cc2)N1 (stereo not shown) [CBK286970]	86.1
